Assay [1] addresses T1, Cytochrome c Peroxidase Gateless cavity (P190G/W191G/Δ192-3) (Saccharomyces cerevisiae, UniProt P00431, A260G/D219G/DEL257-258/P257G/T120I/W258G).
T1 construct: made in house
In words: Binding to the CcP Gateless cavity by titration of the UV-Vis Heme Soret band (or ITC). Particulars: for Binding by UV-Vis: neutral docking hits, at up to 1 mM concentration. The procedure: (§1) Our first interest was to investigate the effect of opening the cavity to bulk solvent. Six known ligands of the buried W191G cavity were tested for binding to the Gateless cavity (P190G/W191G/Δ192-3) by UV-Vis titration or by Isothermal Titration Calorimetry (ITC) ( Figure 2 , Table S1 and Figure S1).
(§2) The compounds were tested for binding by measuring perturbation of the Heme Soret band at 10°C in 100 mM citrate buffer at pH 4.5 or 500 mM MES buffer pH 6.0 [27], [73]. To avoid competition with small cations like potassium, the pH of both buffer conditions was adjusted with Bis-Tris-Propane. Stock solutions were made up in DMSO and diluted into assay buffer to derive KD values in titration curves. KD values were obtained by fitting the difference absorbance of the Heme Soret band to a one-site binding hyperbola in GraphPad Prism (GraphPad Software, Inc.).
(§3) Experiments were performed as described. Assays were performed at 10°C in 100 mM citrate buffer at pH 4.5. Ligand stocks were prepared in buffer from overnight dialysis of the protein to prevent buffer mismatch.

The test system of assay [2] is Cytochrome c Peroxidase Gateless cavity (P190G/W191G/Δ192-3). The description is as above. Particulars: for loss in affinity going from W191G to Gateless: ratio of KD Gateless / W191G; for improvement in affinity in Gateless versus closed W191G: ratio of KD W191G / Gateless. Here is the method:
as §1, §2, §3

A further assay deals with T2, CcP Gateless (Saccharomyces cerevisiae, UniProt P00431, A260G/D219G/DEL257-258/P257G/T120I/W258G).
T2 construct: made in house
In words: Low C-value Isothermal Titration Calorimetry against CcP Gateless. It counts as binding. As to conditions: ITC, 283K; † approximate value from partial ITC curves. The procedure: as §3
Table S1. ITC data (ΔG, ΔH and ΔS): binding of compounds 1, 2, 3, 4 and 6 to CcP Gateless at 283K.
For orientation: In ITC the heat of successive injections is recorded.

Assay [3] concerns the target Cytochrome c Peroxidase W191G cavity. Particulars: closed W191G cavity, cited from earlier work.
Where [4] appears, read: six known W191G ligands, UV-Vis titration or ITC, † = approximate KD by endpoint UV-Vis assay or partial ITC curves, limited by solubility, read-out: KD Gateless.
Setting [5] is: known ligands of W191G, reference not given, read-out: KD W191G.
Setting [6] is: compounds selected from the SEV docking screen, CcP Gateless cavity, UV-Vis Heme Soret band titration, read-out: KD.

We go through 23 compounds from article PMC3715451, “Roles for Ordered and Bulk Solvent in Ligand Recognition and Docking in Two Related Cavities” (PLoS ONE, 2013).

The structures appear in SMILES notation. Entries after “also recorded” stand apart in the source; their conditions may differ. Read-outs that look alike come from different tables or passages of the source.

T1 sequence (P00431 other isoform, or with tags, fused parts or gaps T120I/D219G/DEL257-258/A260G): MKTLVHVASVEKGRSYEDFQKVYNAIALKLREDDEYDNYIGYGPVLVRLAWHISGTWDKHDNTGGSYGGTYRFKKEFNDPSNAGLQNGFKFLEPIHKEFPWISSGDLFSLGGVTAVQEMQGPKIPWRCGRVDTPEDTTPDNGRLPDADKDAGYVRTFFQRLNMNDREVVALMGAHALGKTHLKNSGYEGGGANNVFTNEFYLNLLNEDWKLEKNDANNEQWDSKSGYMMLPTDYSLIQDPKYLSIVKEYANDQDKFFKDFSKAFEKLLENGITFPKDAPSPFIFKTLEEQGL
T2 sequence (P00431 other isoform, or with tags, fused parts or gaps T120I/D219G/DEL257-258/A260G): as above

For the compound `Cc1cnc(N)s1` [Compound 1, 2-amino-5-methylthiazole], in assay [1] (setting [4]), the Kd is 95 µM. In addition, in assay [2], the “loss in affinity going from W191G to Gateless” value (“loss in affinity going” below) was 16 fold. In addition, on CcP Gateless, the TΔS worked out at 0.21 kcal/mol, the ΔG is given as -5.21 kcal/mol and the ΔH is -5.00 kcal/mol. Further, the Kd in assay [3] (setting [5]) is 6 µM.

On to `Nc1c(Br)cnc2ccccc12` [Compound 11], for which, in assay [1] (setting [6]), the Kd is 19 µM.

Turning to `Oc1cccc(F)c1O` [Compound 6, 3-fluorocatechol], the Kd in assay [1] (open Gateless cavity, read-out: affinity in Gateless) was 3100 µM; in assay [1] (setting [4]) it was roughly 3100 µM; in assay [3] (no reference given, read-out: affinity in W191G), 7700 µM. Besides, the “improvement in affinity in Gateless versus closed W191G” value in assay [2] came to 2 fold. Besides, the ΔG at CcP Gateless was ~-3.2† kcal/mol. On CcP Gateless, the ΔH is reported as ~-1.0† kcal/mol.

For `Nc1c2c(nc3sccc13)CCCC2` [Compound 10, 5,6,7,8-tetrahydrothieno[2,3-b]quinolin-4-amine], in assay [1] (setting [6]), the Kd was found to be 64 µM.

Consider `Nc1cccc(N)n1` [Compound 3, 2,6-diaminopyridine], for which the Kd in assay [1] (setting [4]) is 38 µM. For the same compound, the “improvement in affinity in Gateless versus closed W191G” value in assay [2] is given as “about 1.5 fold”. At CcP Gateless, this compound had a TΔS of -3.31 kcal/mol, a ΔG of -5.73 kcal/mol and a ΔH of -9.04 kcal/mol. Further, in assay [3] (setting [5]), the Kd was 60 µM.

As to `C[n+]1cccc(N)c1` [Compound 4, 3-amino-1-methylpyridinium], the Kd in assay [1] (setting [4]) was roughly 3000 µM. The “loss in affinity going” value in assay [2] is on record as 6 fold. Further, on CcP Gateless, the TΔS is reported as ~-3.6† kcal/mol, the ΔG is ~-3.6† kcal/mol and the ΔH is on record as ~-7.2† kcal/mol. Also, in assay [3] (setting [5]), the Kd is 500 µM.

Regarding `Nc1c([N+](=O)[O-])cnc2ccccc12` [Compound 13], in assay [1] (setting [6]), the Kd was 8 µM.

On to `O=C(Oc1cccc([N+](=O)[O-])c1)c1ccncc1` [Compound 9], for which the “Binding by UV-Vis” value in assay [1] was “none showed measurable affinity; also recorded: No binding”.

With `Nc1ccnc(N)n1` [Compound 2, 2,4-diaminopyrimidine], the Kd in assay [1] (setting [4]) was 389 µM. In addition, the “loss in affinity going” value in assay [2] amounted to 8 fold. At CcP Gateless, this compound returned a TΔS of -1.14 kcal/mol, a ΔG of -4.42 kcal/mol and a ΔH of -5.56 kcal/mol. Also, the Kd in assay [3] (setting [5]) was 50 µM.

Regarding `Nc1ccc2nccn2c1` [Compound 20, Imidazo[1,2-a]pyridin-6-amine], in assay [1] (setting [6]), the Kd is 290 µM.

Consider `O=C(Oc1ccccc1)c1ccc2n[nH]nc2c1` [Compound 8], for which the “Binding by UV-Vis” value in assay [1] is “none showed measurable affinity; also recorded: No binding”.

Turning to `OCc1cnc2cc[nH]c2c1` [Compound 17, (1H-Pyrrolo[3,2-b]pyridin-6-yl)methanol], the Kd in assay [1] (setting [6]) is 982 µM.

As to `C[C@@H](O)CNc1ncnc2ccccc12` [Compound 19], the Kd in assay [1] (setting [6]) was found to be 37 µM.

On to `COc1ccc(Nc2cc(C)nc(N)n2)cc1` [Compound 16], for which the Kd in assay [1] (setting [6]) is 17 µM.

On to `Cn1ccnc1Sc1ccccc1N` [Compound 15], for which the Kd in assay [1] (setting [6]) is 203 µM.

`Oc1ccccc1` [Compound 5, Phenol]: in assay [2] (W191G versus Gateless), the “change of affinity between the two cavities” value was “almost unchanged”. For the same compound, the Kd in assay [3] (setting [5]) is 4100 µM.

With `O=Cc1cnc2cc[nH]c2c1` [Compound 24, 1H-Pyrrolo[3,2-b] pyridine-6-carbaldehyde], in assay [1] (setting [6]), the Kd is greater than 2000 µM.

Regarding `Cc1cc(N)n(-c2ccccc2[N+](=O)[O-])n1` [Compound 18], the Kd in assay [1] (setting [6]) was 823 µM.

As for `Cc1cn2cccc(O)c2n1` [Compound 21], the Kd in assay [1] (setting [6]) was determined as 16 µM.

Consider `Nc1ncc(C=O)c(N)n1` [Compound 23], for which the KD entry in assay [1] (compounds selected from the SEV docking screen, CcP Gateless cavity, UV-Vis Heme Soret band titration) was “Non Binder”.

In the case of `CNc1nc2ccccc2[nH]1` [Compound 22, N-methyl-1H-1,3-benzodiazol-2-amine], the Kd in assay [1] (setting [6]) was 288 µM.

As for `O=C(/C=C/c1ccc(F)cc1)c1ccco1` [Compound 7], in assay [1], the “Binding by UV-Vis” value is “none showed measurable affinity; also recorded: No binding”.

For `Nc1cccc2nccn12` [Compound 14, imidazo[1,2-a]pyridin-5-amine], the Kd in assay [1] (setting [6]) came to 14 µM.
